Reference: patent publication US10722466B2, “Liposomal formulation for use in the treatment of cancer” (LES LABORATOIRES SERVIER, priority 2016, dated 2020)

Legend:
[1] = Aqueous solubility of Compound A; type: physicochemical; conditions: all pHs, including physiologically relevant pHs
[2] = In vitro release assay: release of Compound A from SUV to acceptor multilamellar vesicles (MLVs); type: physicochemical
Text: The aim of this experiment was to investigate the release rate of Compound A from small unilamellar vesicles (SUV; used here as a drug carrier system, see Example 3A) to large multilamellar vesicles (MLVs) consisting of egg phospholipids, and used as a lipophilic acceptor for drug released (see Shabbits J. A., Chiu G. N. and Mayer L. D. “Development of an in vitro drug release assay that accurately predicts in vivo drug retention for liposome-based delivery systems” Journal of Controlled Release 2002, 84(3), 161-170).
Multilamellar vesicles were prepared by using the Film-Hydration method. In short, egg phospholipids (Lipoid E 80 S) were weighed out and completely dissolved in organic solvent (EtOH/DCM at 4:1 v/v) to assure a homogenous mixture of all components.
Next, the organic solvent was removed using rotary evaporation (first step: 200 mbar, 50° C., 2 hours; second step: 30 mbar, 50° C., 45 minutes) to yield a homogenous lipid film. To assure complete removal of the organic solvent, the flask was flushed with nitrogen. Next, the film was rehydrated using phosphate buffered saline (PBS, pH 7.4) yielding MLVs and upon complete rehydration the MLVs were exposed to sonication for 15 minutes.
To have the MLVs resuspended in the same buffer system as the SUVs, the suspension was centrifuged for 10 minutes at 14,000 g, the supernatant (PBS) was removed, and replaced by sucrose histidine buffer. Lastly, the mixture was vortexed thoroughly to assure complete redispersion of the MLVs in the new medium before starting the release experiment.
SUVs (donor) were mixed with MLVs (acceptor) in a 25 ml Erlenmeyer flask with a stopper under stirring (500 rpm) at various ratios (1:40, 1:100, 1:200, 1:500; SUV:MLV v/v). 1 ml samples were taken at different time points and immediately centrifuged (14′000 rpm, 10 minutes) to separate the MLVs from SUVs for further processing. FIG. 3 herein is a schematic depicting the principle of the MLV-based release assay.
Next, the MLV portion was removed via suction and 50 μl of the SUV portion were mixed with 450 μl of ACN:H2O for HPLC sample preparation. The sample was then centrifuged (14′000 rpm, 10 minutes), the supernatant was filtered using a 0.22 μm filter and injected into the HPLC for analysis.
A high performance liquid chromatography (HPLC) system with UV detection including the following equipment settings and solvent systems were employed:
Compound A release was measured using MLVs as the acceptor compartment. Here, Compound A-loaded SUVs (7.5 mg/ml) were added to these MLVs at different ratios (v/v).
Note: For all MLV release experiments, the maximum concentration (maxC=100%) was obtained by diluting the 7.5 mg/ml loaded SUVs 1 to 40, 1 to 100, 1 to 200, or 1 to 500 (v/v) in Sucrose Histidine buffer instead of MLVs.

COc1ccccc1-c1nccc(COc2ccccc2CC(Oc2ncnc3sc(-c4ccc(F)cc4)c(-c4ccc(OCCN5CCN(C)CC5)c(Cl)c4C)c23)C(=O)O)n1 [Compound A, (2R)-2-{[(5Sa)-5-{3-chloro-2-methyl-4-[2-(4-methylpiperazin-1-yl)ethoxy]phenyl}-6-(4-fluorophenyl)thieno[2,3-d]pyrimidin-4-yl]oxy}-3-(2-{[2-(2-methoxyphenyl)pyrimidin-4-yl]methoxy}phenyl)propanoic acid]
Aqueous solubility [1]: limited aqueous solubility across all pHs | Initial amount of Compound A still detectable in the SUV portion ([2]; SUV:MLV 1 to 40 (v/v), after 2 minutes, 7.5 mg/ml loaded SUVs): about 44% | Compound A released or transferred to the acceptor MLV ([2]; SUV:MLV 1 to 40 (v/v), t=2 minutes): ~60% | Compound A released to the acceptor MLV ([2]; SUV:MLV 1 to 100 (v/v), t=2 minutes): ~70% | Compound A released to the acceptor MLV ([2]; SUV:MLV 1 to 200 (v/v), t=2 minutes): ~80% | Compound A released to the acceptor MLV ([2]; SUV:MLV 1 to 500 (v/v), t=2 minutes): ~90% | Drug substance released (maximum over the ratios tested) ([2]; after only 2 minutes): up to 90%
